In patent US20060257411A1 (priority 2005, published 2006):
Where two headings read alike, the source gives them in different places.

Tests used:
peritoneal macrophages = format: cell-based, mouse
[1] = system: MyD88-independent pathway (TRIF-TRAM, IRF-3) in peritoneal macrophages; format: cell-based, mouse
[2] = system: vesicular stomatitis virus (VSV); format: cell-based; conditions: Heedless or Tlr4 Lps-d/Lps-d macrophages treated with interferon before infection (4 h)
[3] = macrophages from homozygous Heedless mice compared with wild-type, 4 h incubation

## MALP-2
Peritoneal macrophages
  TNF production in response to inducer: partial impairment

## Pam2CSK4
Peritoneal macrophages; [3]
  TNF production in response to inducer: partial impairment

## Pam3CSK4
Peritoneal macrophages; [3]
  TNF production in response to inducer: normal

## lipid A
Peritoneal macrophages
  TNF production in response to lipid A: perfectly able to produce TNF
[1]
  formation of the IRF-3 phosphodimer: not detected
  signaling via the MyD88-independent pathway (type I IFN production): prevented

## lipoteichoic acid
Peritoneal macrophages
  TNF production in response to inducer: partial impairment

## poly IC
Peritoneal macrophages; [3]
  TNF production in response to inducer: normal

B1: type I interferon: recombinant murine IFN-β from R&D systems used to pretreat macrophages (protein, UniProt P01575 22-182, looked up)
Interferon beta: INYKQLQLQERTNIRKCQELLEQLNGKINLTYRADFKIPMEMTEKMQKSYTAFAIQEMLQNVFLVFRNNFSSTGWNETIVVRLLDELHQQTVFLKTVLEEKQEERLTWEMSSTALHLKSYYWRVQRYLKLMKYNSYAWMVVRAEIFRNFLIIRRLTRNFQN
[2]
  lytic effect of VSV on macrophages: prevented
